According to patent US20230406885A1, “CYCLIC PEPTIDES FOR TRAPPING INTERLEUKIN-1 BETA” (MERCK SHARP & DOHME LLC, priority 2022, published 2023):
*1 amine or outer side, *2 acyl side, *3 side chain or, on linkers, in order; H or OH if unused. Where a SMILES comes first, the peptide text is derived from it. [ ]: non-standard residue; d: D form. Phe(4-(trans-4-COOH-cHex)) = N[C@@H](Cc1ccc([C@H]2CC[C@H](C(=O)O)CC2)cc1)C(=O)O; Phe(4-(4-Ac-piperazinyl)) = CC(=O)N1CCN(c2ccc(C[C@H](N)C(=O)O)cc2)CC1; Bip(4'-COOH) = N[C@@H](Cc1ccc(-c2ccc(C(=O)O)cc2)cc1)C(=O)O; 1Nal(3S-Me) = C[C@@H](c1cccc2ccccc12)[C@H](N)C(=O)O; Ala(indolin-1-yl) = N[C@@H](CN1CCc2ccccc21)C(=O)O; Phe(4-COOH) = N[C@@H](Cc1ccc(C(=O)O)cc1)C(=O)O; Trp(6-F) = N[C@@H](Cc1c[nH]c2cc(F)ccc12)C(=O)O; dαMeDab = C[C@](CCN[*:3])(N[*:1])C(=O)[*:2]; h3Pal(5-CN) = N#Cc1cncc(CC[C@H](N)C(=O)O)c1; Pro(4R-NH2) = N[C@H]1CN[C@H](C(=O)O)C1; hTyr = N[C@@H](CCc1ccc(O)cc1)C(=O)O; X9 = CCCC[C@](C)(N[*:1])C(=O)[*:2]; hCha = N[C@@H](CCC1CCCCC1)C(=O)O; 4Pal = N[C@@H](Cc1ccncc1)C(=O)O; Cha = N[C@@H](CC1CCCCC1)C(=O)O; dDab = NCC[C@@H](N)C(=O)O; Nle = CCCC[C@H](N)C(=O)O; dDap = NC[C@@H](N)C(=O)O; dNMeA = CN[C@H](C)C(=O)O; Dab = NCC[C@H](N)C(=O)O; Dap = NC[C@H](N)C(=O)O

What follows are molecules tested against T1, Recombinant human IL-1β (Homo sapiens, UniProt P01584) (assay: IL-6 assay in MRC5 cells: inhibition of IL-1β induced IL-6 secretion (AlphaLISA)). Details: inhibition of IL-1β induced IL-6 secretion in MRC5 cells; read-out: MRC5 IC50.
T1 construct: purchased BioLegend 579404
T1 sequence (P01584 117-269): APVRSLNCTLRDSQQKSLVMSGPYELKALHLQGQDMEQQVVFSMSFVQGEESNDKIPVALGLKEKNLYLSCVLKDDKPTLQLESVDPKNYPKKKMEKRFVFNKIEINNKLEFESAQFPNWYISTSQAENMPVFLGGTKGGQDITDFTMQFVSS
Format: cell-based
How it was run: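 IL-1β at 2×EC80 in seeding medium (EMEM, 0.025% BSA) preincubated 1 h at ambient temperature with compound, then 3000 MRC5 cells/well added and incubated overnight at 37 °C, 5% CO2. IL-6 in conditioned medium quantified by AlphaLISA; IC50 from 4-parameter logistic fit.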

Row | IC50 [pM] | Structure (SMILES)
1 | 12 | C[C@@H]1C(=O)NCC(=O)N[C@@H](Cc2ccc(-c3ccc(C(=O)O)cc3)cc2)C(=O)N[C@@H](Cc2ccncc2)C(=O)N[C@@H](CO)C(=O)N[C@H](CCN)C(=O)N[C@@H](CCC2CCCCC2)C(=O)N[C@@H](Cc2ccc([C@H]3CC[C@H](C(=O)O)CC3)cc2)C(=O)N[C@@H](Cc2c[nH]c3cc(F)ccc23)C(=O)N[C@@H](Cc2ccc(C(=O)O)cc2)C(=O)NCC(=O)N2C[C@H](N)C[C@H]2C(=O)N[C@@H]([C@@H](C)c2cccc3ccccc23)C(=O)N[C@@H](CC(=O)O)C(=O)N1C [Example 193] (cyclo([Phe(4-(trans-4-COOH-cHex))][Trp(6-F)][Phe(4-COOH)]G[Pro(4R-NH2)][1Nal(3S-Me)]D[dNMeA]G[Bip(4'-COOH)][4Pal]S[dDab][hCha]))
2 | 30 | C[C@@H]1C(=O)NCC(=O)N[C@@H](Cc2ccc(-c3ccc(C(=O)O)cc3)cc2)C(=O)N[C@@H](Cc2ccncc2)C(=O)NCC(=O)N[C@H](CCN)C(=O)N[C@@H](CCC2CCCCC2)C(=O)N[C@@H](Cc2ccc([C@H]3CC[C@H](C(=O)O)CC3)cc2)C(=O)N[C@@H](Cc2c[nH]c3ccccc23)C(=O)N[C@@H](Cc2ccc(C(=O)O)cc2)C(=O)NCC(=O)N2C[C@H](N)C[C@H]2C(=O)N[C@@H]([C@@H](C)c2cccc3ccccc23)C(=O)N[C@@H](CC(=O)O)C(=O)N1C [Example 196] (cyclo([Phe(4-(trans-4-COOH-cHex))]W[Phe(4-COOH)]G[Pro(4R-NH2)][1Nal(3S-Me)]D[dNMeA]G[Bip(4'-COOH)][4Pal]G[dDab][hCha]))
3 | 24 | CCCC[C@@H]1NC(=O)[C@@H](CCN)NC(=O)CNC(=O)[C@H](Cc2ccncc2)NC(=O)[C@H](Cc2ccc(-c3ccc(C(=O)O)cc3)cc2)NC(=O)CNC(=O)[C@@H](C)N(C)C(=O)[C@H](CC(=O)O)NC(=O)[C@H]([C@@H](C)c2cccc3ccccc23)NC(=O)[C@@H]2C[C@@H](N)CN2C(=O)CNC(=O)[C@H](Cc2ccc(C(=O)O)cc2)NC(=O)[C@H](Cc2c[nH]c3ccccc23)NC(=O)[C@H](Cc2ccc([C@H]3CC[C@H](C(=O)O)CC3)cc2)NC1=O [Example 197] (cyclo([Phe(4-(trans-4-COOH-cHex))]W[Phe(4-COOH)]G[Pro(4R-NH2)][1Nal(3S-Me)]D[dNMeA]G[Bip(4'-COOH)][4Pal]G[dDab][Nle]))
4 | 21 | CC(=O)N1CCN(c2ccc(C[C@@H]3NC(=O)[C@H](CCc4ccc(O)cc4)NC(=O)[C@@H](CCN)NC(=O)CNC(=O)[C@H](CN4CCc5ccccc54)NC(=O)[C@H](Cc4ccc(-c5ccc(C(=O)O)cc5)cc4)NC(=O)CNC(=O)[C@@H](C)N(C)C(=O)[C@H](CC(=O)O)NC(=O)[C@H]([C@@H](C)c4cccc5ccccc45)NC(=O)[C@@H]4C[C@@H](N)CN4C(=O)CNC(=O)[C@H](Cc4ccc(C(=O)O)cc4)NC(=O)[C@H](Cc4c[nH]c5ccccc45)NC3=O)cc2)CC1 [Example 198] (cyclo([Phe(4-(4-Ac-piperazinyl))]W[Phe(4-COOH)]G[Pro(4R-NH2)][1Nal(3S-Me)]D[dNMeA]G[Bip(4'-COOH)][Ala(indolin-1-yl)]G[dDab][hTyr]))
5 | 24 | CC(=O)N1CCN(c2ccc(C[C@@H]3NC(=O)[C@H](CCC4CCCCC4)NC(=O)[C@@](C)(CCN)NC(=O)CNC(=O)[C@H](Cc4ccncc4)NC(=O)[C@H](Cc4ccc(-c5ccc(C(=O)O)cc5)cc4)NC(=O)CNC(=O)[C@@H](C)N(C)C(=O)[C@H](CC(=O)O)NC(=O)[C@H]([C@@H](C)c4cccc5ccccc45)NC(=O)[C@@H]4C[C@@H](N)CN4C(=O)CNC(=O)[C@H](Cc4ccc(C(=O)O)cc4)NC(=O)[C@H](Cc4c[nH]c5ccccc45)NC3=O)cc2)CC1 [Example 199] (cyclo([Phe(4-(4-Ac-piperazinyl))]W[Phe(4-COOH)]G[Pro(4R-NH2)][1Nal(3S-Me)]D[dNMeA]G[Bip(4'-COOH)][4Pal]G[dαMeDab][hCha]))
6 | 34 | CCCC[C@]1(C)NC(=O)[C@@H](CCN)NC(=O)CNC(=O)[C@H](Cc2ccncc2)NC(=O)[C@H](Cc2ccc(-c3ccc(C(=O)O)cc3)cc2)NC(=O)CNC(=O)[C@@H](C)N(C)C(=O)[C@H](CC(=O)O)NC(=O)[C@H]([C@@H](C)c2cccc3ccccc23)NC(=O)[C@@H]2C[C@@H](N)CN2C(=O)CNC(=O)[C@H](Cc2ccc(C(=O)O)cc2)NC(=O)[C@H](Cc2c[nH]c3ccccc23)NC(=O)[C@H](Cc2ccc(N3CCN(C(C)=O)CC3)cc2)NC1=O [Example 200] (cyclo([Phe(4-(4-Ac-piperazinyl))]W[Phe(4-COOH)]G[Pro(4R-NH2)][1Nal(3S-Me)]D[dNMeA]G[Bip(4'-COOH)][4Pal]G[dDab][X9]))
7 | 30 | CC(=O)N1CCN(c2ccc(C[C@@H]3NC(=O)[C@H](CCC4CCCCC4)NC(=O)[C@@H](CCN)NC(=O)CNC(=O)[C@H](Cc4ccncc4)NC(=O)[C@H](Cc4ccc(-c5ccc(C(=O)O)cc5)cc4)NC(=O)CNC(=O)[C@@H](C)N(C)C(=O)[C@H](CC(=O)O)NC(=O)[C@H]([C@@H](C)c4cccc5ccccc45)NC(=O)[C@@H]4C[C@@H](N)CN4C(=O)CNC(=O)[C@H](Cc4ccc(C(=O)O)cc4)NC(=O)[C@H](Cc4c[nH]c5ccccc45)NC3=O)cc2)CC1 [Example 201] (cyclo([Phe(4-(4-Ac-piperazinyl))]W[Phe(4-COOH)]G[Pro(4R-NH2)][1Nal(3S-Me)]D[dNMeA]G[Bip(4'-COOH)][4Pal]G[dDab][hCha]))
8 | 29 | CC(=O)N1CCN(c2ccc(C[C@@H]3NC(=O)[C@H](CCc4ccc(O)cc4)NC(=O)[C@@H](CCN)NC(=O)CNC(=O)[C@H](CC4CCCCC4)NC(=O)[C@H](Cc4ccc(-c5ccc(C(=O)O)cc5)cc4)NC(=O)CNC(=O)[C@@H](C)N(C)C(=O)[C@H](CC(=O)O)NC(=O)[C@H]([C@@H](C)c4cccc5ccccc45)NC(=O)[C@@H]4C[C@@H](N)CN4C(=O)CNC(=O)[C@H](Cc4ccc(C(=O)O)cc4)NC(=O)[C@H](Cc4c[nH]c5ccccc45)NC3=O)cc2)CC1 [Example 202] (cyclo([Phe(4-(4-Ac-piperazinyl))]W[Phe(4-COOH)]G[Pro(4R-NH2)][1Nal(3S-Me)]D[dNMeA]G[Bip(4'-COOH)][Cha]G[dDab][hTyr]))
9 | 12 | CC(=O)N1CCN(c2ccc(C[C@@H]3NC(=O)[C@H](CCC4CCCCC4)NC(=O)[C@@H](C)NC(=O)[C@H](CC(C)C)NC(=O)[C@H](CCN)NC(=O)[C@H](Cc4ccc(-c5ccc(C(=O)O)cc5)cc4)NC(=O)CNC(=O)[C@@H](C)N(C)C(=O)[C@H](CC(=O)O)NC(=O)[C@H]([C@@H](C)c4cccc5ccccc45)NC(=O)[C@@H]4C[C@@H](N)CN4C(=O)CNC(=O)[C@H](Cc4ccc(C(=O)O)cc4)NC(=O)[C@H](Cc4c[nH]c5ccccc45)NC3=O)cc2)CC1 [Example 203] (cyclo([Phe(4-(4-Ac-piperazinyl))]W[Phe(4-COOH)]G[Pro(4R-NH2)][1Nal(3S-Me)]D[dNMeA]G[Bip(4'-COOH)][Dab]L[dA][hCha]))
10 | 9 | CC(=O)NC[C@@H]1NC(=O)[C@H](Cc2ccc(-c3ccc(C(=O)O)cc3)cc2)NC(=O)CNC(=O)[C@@H](C)N(C)C(=O)[C@H](CC(=O)O)NC(=O)[C@H]([C@@H](C)c2cccc3ccccc23)NC(=O)[C@@H]2C[C@@H](N)CN2C(=O)CNC(=O)[C@H](Cc2ccc(C(=O)O)cc2)NC(=O)[C@H](Cc2c[nH]c3ccccc23)NC(=O)[C@H](Cc2ccc(N3CCN(C(C)=O)CC3)cc2)NC(=O)[C@H](CCc2cncc(C#N)c2)NC(=O)[C@@H](C)NC(=O)[C@H](CCCCN)NC1=O [Example 204] (cyclo([Phe(4-(4-Ac-piperazinyl))]W[Phe(4-COOH)]G[Pro(4R-NH2)][1Nal(3S-Me)]D[dNMeA]G[Bip(4'-COOH)][Dap](Ac)K[dA][h3Pal(5-CN)]))
11 | 10 | CC(=O)NC[C@@H]1NC(=O)[C@H](Cc2ccc(-c3ccc(C(=O)O)cc3)cc2)NC(=O)CNC(=O)[C@@H](C)N(C)C(=O)[C@H](CC(=O)O)NC(=O)[C@H]([C@@H](C)c2cccc3ccccc23)NC(=O)[C@@H]2C[C@@H](N)CN2C(=O)CNC(=O)[C@H](Cc2ccc(C(=O)O)cc2)NC(=O)[C@H](Cc2c[nH]c3ccccc23)NC(=O)[C@H](Cc2ccc(N3CCN(C(C)=O)CC3)cc2)NC(=O)[C@H](CCc2cncc(C#N)c2)NC(=O)[C@@H](CN)NC(=O)[C@H](CC(C)C)NC1=O [Example 205] (cyclo([Phe(4-(4-Ac-piperazinyl))]W[Phe(4-COOH)]G[Pro(4R-NH2)][1Nal(3S-Me)]D[dNMeA]G[Bip(4'-COOH)][Dap](Ac)L[dDap][h3Pal(5-CN)]))
12 | 15 | CC(=O)N1CCN(c2ccc(C[C@@H]3NC(=O)[C@H](CCC4CCCCC4)NC(=O)[C@@H](C)NC(=O)[C@H](CC(C)C)NC(=O)[C@H](CN)NC(=O)[C@H](Cc4ccc(-c5ccc(C(=O)O)cc5)cc4)NC(=O)CNC(=O)[C@@H](C)N(C)C(=O)[C@H](CC(=O)O)NC(=O)[C@H]([C@@H](C)c4cccc5ccccc45)NC(=O)[C@@H]4C[C@@H](N)CN4C(=O)CNC(=O)[C@H](Cc4ccc(C(=O)O)cc4)NC(=O)[C@H](Cc4c[nH]c5ccccc45)NC3=O)cc2)CC1 [Example 206] (cyclo([Phe(4-(4-Ac-piperazinyl))]W[Phe(4-COOH)]G[Pro(4R-NH2)][1Nal(3S-Me)]D[dNMeA]G[Bip(4'-COOH)][Dap]L[dA][hCha]))
13 | 11 | CC(=O)N1CCN(c2ccc(C[C@@H]3NC(=O)[C@H](CCC4CCCCC4)NC(=O)[C@@H](C)NC(=O)[C@H](CC(C)C)NC(=O)[C@H](CCCCN)NC(=O)[C@H](Cc4ccc(-c5ccc(C(=O)O)cc5)cc4)NC(=O)CNC(=O)[C@@H](C)N(C)C(=O)[C@H](CC(=O)O)NC(=O)[C@H]([C@@H](C)c4cccc5ccccc45)NC(=O)[C@@H]4C[C@@H](N)CN4C(=O)CNC(=O)[C@H](Cc4ccc(C(=O)O)cc4)NC(=O)[C@H](Cc4c[nH]c5ccccc45)NC3=O)cc2)CC1 [Example 207] (cyclo([Phe(4-(4-Ac-piperazinyl))]W[Phe(4-COOH)]G[Pro(4R-NH2)][1Nal(3S-Me)]D[dNMeA]G[Bip(4'-COOH)]KL[dA][hCha]))
